The text below walks through data of article PMC12751012, “Nanoscale Direct-to-Biology Optimization and Structural Insights into Selective S. aureus TrmD Inhibitors” (Journal of Medicinal Chemistry, 2025).

The target in one series is T1, S. aureus TrmD (Staphylococcus aureus, UniProt Q2FZ43).
T1 construct: made in house; host or cells: E. coli BL21
T1 sequence (Q2FZ43 1-245): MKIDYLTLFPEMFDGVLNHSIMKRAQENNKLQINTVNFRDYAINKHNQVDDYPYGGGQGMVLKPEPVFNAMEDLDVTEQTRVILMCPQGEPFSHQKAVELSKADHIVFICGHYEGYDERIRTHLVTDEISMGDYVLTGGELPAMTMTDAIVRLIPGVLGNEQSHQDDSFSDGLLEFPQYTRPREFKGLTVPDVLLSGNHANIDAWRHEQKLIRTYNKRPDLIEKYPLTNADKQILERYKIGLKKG
In words: nanoSAR direct-to-biology FP displacement screening of crude triazoles. Type of series: binding. The note with it: read-out: % displaced tracer. The gist of the method: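 S. aureus TrmD (500 nM) with tracer 4 (10 nM) in Tris/NaCl/MgCl2/glycerol buffer, pH 7.5, was challenged with unpurified triazoles from in situ CuAAC of alkyne 7 with a 320-member azide library.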

The nature of series [1]: Cell Titer Glo cell viability assay. The note with it: human, HEK293 cells. The format is cell-based, human. The method, then: (§1) Cell viability assays were conducted with HEK293 cells (ATCC) to investigate the compounds’ mammalian cytotoxicity. Cells were cultured according to standard protocols (DMEM, 10% FBS, 1× Penicillin/Streptomycin, 37 °C, 5% CO2). Cell viability was assessed using the Promega CellTiterGlo assay kit. Briefly, 1000 cells were seeded in white half a rea 96-well plates (Greiner) and incubated for 48 h with inhibitors from DMSO stocks (final: 0.1% DMSO) under standard cultivation conditions. Then, the cell titer reagent was added to each well according to the manufacturer’s protocols, and luminescence was measured using a Tecan Spark 10 M plate reader.
(In general: In ATP-based viability assays light output follows the ATP content of the culture.)

Another series concerns HEK293 cells. Nature of the series: Cell Titer Glo cell viability assay. The format is cell-based, human. The note with it: 48 h. The procedure: as §1
Setting [2] is: crude triazole at 1 μM, assuming full conversion, 500 nM TrmD, 10 nM tracer 4.

Where two headings read alike, the source gives them in different places.

By CC50 is commonly meant the concentration giving 50% cytotoxicity. A low value points to greater toxicity to the cells. For `O=c1[nH]cnc2[nH]cc(-c3cn(CC4CCC5C(CC4)C5(F)F)nn3)c12` (stereo not shown) [Compound 8c, 5-(1-((8,8-Difluorobicyclo[5.1.0]octan-4-yl)methyl)-1H-1,2,3-triazol-4-yl)-3,7-dihydro-4H-pyrrolo[2,3-d]pyrimidin-4-one], the inhibition at 1 µM on S. aureus TrmD (setting [2]) stood at 98%. In series [1], this compound returned a CC50 at 48 h greater than 100 µM. For the same compound, the “mammalian cytotoxicity HEK293” value in the series on HEK293 cells (at 100 μM) is on record as “Slight cytotoxic effects”.

Regarding `N#Cc1cccc(Cn2cc(-c3c[nH]c4nc[nH]c(=O)c34)nn2)c1` [Compound 8b, 3-((4-(4-Oxo-4,7-dihydro-3H-pyrrolo[2,3-d]pyrimidin-5-yl)-1H-1,2,3-triazol-1-yl)methyl)benzonitrile], the inhibition at 1 µM on S. aureus TrmD (setting [2]) turned out to be 100%. For the same compound, the CC50 at 48 h in series [1] is greater than 100 µM. The “mammalian cytotoxicity HEK293” value in the series on HEK293 cells (at 100 μM) was “Slight cytotoxic effects”.

On to `O=c1[nH]cnc2[nH]cc(-c3cn(Cc4ccc5ncccc5c4)nn3)c12` [Compound 8d, 5-(1-(Quinolin-6-ylmethyl)-1H-1,2,3-triazol-4-yl)-3,7-dihydro-4H-pyrrolo[2,3-d]pyrimidin-4-one], for which the inhibition at 1 µM on S. aureus TrmD (setting [2]) was 98%. In series [1], this compound registered a CC50 at 48 h greater than 100 µM.

On to `N[C@@H]1CCC[C@@H]1Cn1cc(-c2c[nH]c3nc[nH]c(=O)c23)nn1` [Compound 8e, 5-(1-(((1R,2R)-2-Aminocyclopentyl)methyl)-1H-1,2,3-triazol-4-yl)-3,7-dihydro-4H-pyrrolo[2,3-d]pyrimidin-4-one], for which, on S. aureus TrmD (setting [2]), the inhibition at 1 µM turned out to be 93%. In series [1], this compound returned a CC50 at 48 h greater than 100 µM. Besides, the “mammalian cytotoxicity HEK293” value with HEK293 cells (at >10 μM) is “Slight cytotoxic effects”.

Take `NC(N)=NCCn1cc(-c2c[nH]c3nc[nH]c(=O)c23)nn1` [Compound 8h]: the inhibition at 1 µM on S. aureus TrmD stood at 97%. In addition, the “cell viability / mammalian cytotoxicity HEK293” value with HEK293 cells (up to 100 μM) was “no mammalian cytotoxicity”.
